“Also recorded” adds a separate entry of the source. No end group written: not given here.
Key:
[1] = tested on: Dictyostelium discoideum amoeba cells; test: Permeation of FITC-labelled peptides into cultured Dictyostelium cells (fluorescence microscopy); type: cell-based; conditions: FITC-labelled peptide, 10 micromolar, 1 hour
Method: Peptides were labelled with Fluorescein isothiocyanate (FITC) using a FITC labeling kit as per instructions (Pierce, UK). When added to cell cultures the labeled peptides were visualized using a fluorescent microscope by exciting the FITC with a 488 nm spectral line, argon-ion laser (Excitation wavelength of 494 nm and an Emission wavelength of 518 nm).
AX2 wild type Dictyostelium cells were grown on SM agar plates seeded with Aerobacter aerogenes bacteria (also known as Klebsiella aerogenes) as a food source.
Cupid A ([…]) and Cupid B ([…]) were chemically synthesized labelled with FITC at the amino terminal. The peptides were added to cultured eukaryotic cells of Dictyostelium discoideum amoeba for varying amounts of time up to 2 hours. Cells were then washed and prepared for examination under a fluorescent microscope (FIG. 1). The time courses of permeation were compared to the class 3 CPP, the Antennapedia peptide, pANT which was also labelled with FITC in chemical synthesis (FIG. 2).

[2] = tested on: Dictyostelium cAMP-dependent Protein Kinase (DdPKA); test: PKA-dependent aggregation of starved Dictyostelium cultures; type: cell-based, Dictyostelium discoideum; conditions: 10 micromolar peptide
Method: FIG. 6. Cupid can transport small molecule cargo into cells. Starved Dictyostelium cultures were treated with no peptide (A), cupid B peptide (B), PKI peptide (C) and Cupid B-PKI peptide (D) and analysed for aggregation.
Upon starvation Dictyostelium initiates a developmental program leading to the aggregation of free-living amoebae. Genetic research has uncovered the crucial role that cyclic adenosine monophosphate (cAMP) plays in orchestrating as an extracellular chemoattractant in the initial aggregation process through Dictyostelium cAMP-dependent Protein Kinase (DdPKA). DdPKA can be inhibited by PKI, a 20 amino acid peptide sequence derived from an inhibitor of PKA, by PKI binding directly to the catalytic unit of PKA.
By creating a Cupid B-PKI fusion protein we aimed to establish that it prevents starving Dictyostelium cells from aggregating in vivo.

| Sequence | cell permeation (fluorescence microscopy) [1] | effect on aggregation of starved Dictyostelium cultures [2] | effect on aggregation of starved Dictyostelium cultures ([2]; listed as Cupid-PKI) |
| --- | --- | --- | --- |
| HHHHHHRRVQIWFQNKRAKVKRIDTTYADRASGRTGRRNAIHD (also: FITC label, site not given here) [Cupid B-PKI, Cupid B-PKI fusion protein with 6x Histidine, made recombinantly in E. coli; FITC-labelled for microscopy] | cell permeable | completely attenuating | failed to aggregate |
| RRVQIWFQNKRAKVKR [Cupid B, cell penetrating peptide from the genome of Dictyostelium discoideum] | – | neither the Cupid B peptide nor the PKI peptide alone have any effect on aggregation; also recorded: cells aggregated into tight masses | – |
| TTYADRASGRTGRRNAND [PKI, reference compound] | – | neither the Cupid B peptide nor the PKI peptide alone have any effect on aggregation; also recorded: cells aggregated into tight masses | – |

Source: patent US20160310607A1, “CELL TRANSPORT” (CUPID PEPTIDE COMPANY LIMITED, priority 2013, published 2016)
